Laboratory results published in article PMC6930570, “2-Arylidene-1-indandiones as Pleiotropic Agents with Antioxidant and Inhibitory Enzymes Activities” (Molecules, 2019).

Columns and labels:
[1] = system: carrageenin-induced rat paw edema; assay: Inhibition of the carrageenin-induced rat paw edema (CPE); format: in vivo, Fisher 344 rats; details: Rattus norvegicus, ip; 0.01 mmol/kg body weight, intraperitoneally, 3.5 h after carrageenin; read-out: CPE % (reduction of the rat paw edema)
Description: Carrageenin-induced rat paw edema (CPE) model was used to study the in vivo anti-inflammatory activity of the tested derivatives and the results are presented in Table 3. […] Compounds 2, 7, 8, 10, and 12 presented small differences in their biological activity. The presence of the thienyl group as well as of the furyl leads to higher anti-inflammatory activity (1 and 3) while substitution with a phenyl group leads to two-fold decrease of the activity (28%).
Edema was induced in the right hind paw of Fisher 344 rats (150–200 g) by the intradermal injection of 0.1 mL 2% carrageenin in water. Both sexes were used while females pregnant were excluded. Each group was composed of 6–15 animals. The animals, which have been bred in our laboratory, were housed under standard conditions and received a diet of commercial food pellets and water ad libitum during the maintenance but they were entirely fasted during the experiment period. Our studies were in accordance with recognised guidelines on animal experimentation. (guidelines for the care and use of laboratory animals published by the Greek Government 160/1991, based on EU regulations 86/609). Rats were kept in the Centre of the School of Veterinary Medicine (EL54 BIO42), Aristotle University of Thessaloniki, which is registered by the official state veterinary authorities (presidential degree 56/2013, in harmonization with the European Directive 2010/63/EEC). The experimental protocols were approved by the Animal Ethics Committee of the Prefecture of Central Macedonia (no. 270079/2500). The tested compounds 0.01 mmol/kg body weight were suspended in water, with a few drops of Tween 80 and ground in a mortar before use and were given intraperitoneally simultaneously with the carrageenin injection. The rats were euthanized 3.5 h after carrageenin injection. The difference between the weight of the injected and uninjected paws was calculated for each animal. The change in paw weight was compared with that in control animals (treated with water) and expressed as a percent inhibition of the edema CPE % values […] [58, 59]. Indomethacin in 0.01 mmol/kg (47%). Values CPE % are the mean from two different experiments with a standard error of the mean less than 10% (Table 3).

[2] = system: trypsin; assay: In vitro inhibition of trypsin induced proteolysis; format: biochemical; details: bovine albumin substrate, no = no action under the experimental conditions
Procedure: Serine proteases are implicated in the pathophysiology of inflammatory diseases and trypsin is well known years ago [66]. Trypsin has been associated with host defense reactions and tissue damage. In this study, the novel derivatives have been evaluated towards trypsin and thrombin. Compounds 8 and 9 present high activity.
The Kunitz method was used after modification using bovine albumin was used as substrate for trypsin. In this assay, first 200 μL of 0.075 mg/mL trypsin and 780 μL of phosphate buffer pH 7.6 including the tested compounds (20 μL in DMSO, final concentration 100 μM) were pre-incubated at 37 °C for 20 min and then added 1 mL of albumin (stock solution 6 g/100 mL in phosphate buffer 0.1 M, pH 7.6) and incubated at 37 °C for 30 min. Secondly 1mLof 5% trichloroacetic acid was added to the incubated solution to stop the enzyme’s reaction and allowed to set at room temperature for 1 h. Then the solution was filtered, and the absorption of the filtrate was measured at 280 nm using salicylic acid as a reference compound [61] (Table 3).

[3] = ABTS+. decolorization assay; format: biochemical; details: 1 min, no = no action under the experimental conditions
Description: The radical cation ABTS^+• is directly generated through potassium persulfate by oxidation with no participation of an intermediary radical and then the reduction is followed by adding electron-donating antioxidants. In this assay the radical is generated before adding the antioxidant (decolorization assay). […] It seems that lipophilicity influences the activity, since both are presenting high lipophilicity values. […] The radical cation ABTS^+• was generated from an ABTS stock solution in water (7 mM) which was mixed with potassium persulfate (2.45 mM) and left in the dark at room temperature for 12–16 h before use. The results are recorded after 1min of the mixing solutions at 734 nm and compared to the appropriate standard inhibitor Trolox (Table 3).

[4] = target: T1, soybean lipoxygenase (Glycine max, UniProt P08170); assay: Soybean lipoxygenase inhibition in vitro; format: biochemical; details: sodium linoleate substrate, no = no action under the experimental conditions, read-out: LOX (% Inhibition 100 µM)
T1 construct: purchased Sigma Chemical, Co. (St. Louis)
T1 sequence (P08170 1-839): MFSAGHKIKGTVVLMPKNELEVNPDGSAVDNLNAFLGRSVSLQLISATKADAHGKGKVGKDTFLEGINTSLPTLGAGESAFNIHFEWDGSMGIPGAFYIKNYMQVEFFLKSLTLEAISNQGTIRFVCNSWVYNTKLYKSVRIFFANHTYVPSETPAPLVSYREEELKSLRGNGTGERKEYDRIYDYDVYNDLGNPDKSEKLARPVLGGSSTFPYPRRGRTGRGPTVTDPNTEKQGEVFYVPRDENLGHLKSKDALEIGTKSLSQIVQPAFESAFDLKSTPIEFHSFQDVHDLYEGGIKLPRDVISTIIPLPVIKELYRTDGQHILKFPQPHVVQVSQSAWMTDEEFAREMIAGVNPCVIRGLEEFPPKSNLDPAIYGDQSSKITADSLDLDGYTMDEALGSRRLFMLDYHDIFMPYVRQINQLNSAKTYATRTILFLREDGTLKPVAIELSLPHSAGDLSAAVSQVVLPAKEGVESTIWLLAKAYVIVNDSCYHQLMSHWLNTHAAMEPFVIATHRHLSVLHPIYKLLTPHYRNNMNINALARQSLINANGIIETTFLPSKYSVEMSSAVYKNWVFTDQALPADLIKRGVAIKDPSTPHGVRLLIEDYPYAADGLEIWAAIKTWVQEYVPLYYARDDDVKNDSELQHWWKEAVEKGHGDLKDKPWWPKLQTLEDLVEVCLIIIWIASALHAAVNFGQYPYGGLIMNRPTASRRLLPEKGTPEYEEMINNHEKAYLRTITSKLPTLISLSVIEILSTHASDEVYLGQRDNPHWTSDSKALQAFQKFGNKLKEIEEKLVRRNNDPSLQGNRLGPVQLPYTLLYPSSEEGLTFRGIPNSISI
Procedure: Thus, we used soybean LOX in our in vitro experiments.
In vitro study was performed as reported previously by our group. Sodium linoleate (0.1 mM) and 0.2 mL of enzyme solution (1/9 × 104 w/v in saline) were used for the incubation of the tested derivatives.

[5] = Reducing activity of the stable radical DPPH; format: biochemical
Procedure: The novel derivatives were studied for their interaction with the sTable 2,2-diphenyl-1-picrylhydrazyl free radical (DPPH)at concentration 50 µM, 100 µM and 200 µM after 20 and 60 min (Table 2). In this assay the DPPH radical is reduced transferring one electron from the antioxidant. Phenolic compounds such as catechol and derivatives generate phenoxide anions with strong antioxidant capacity. Nordihydroguaretic acid (NDGA), the reference compound acts by this mechanism. Compound 10 presents the highest scavenging activity at 100 µM after 20 min correlated with the presence of the phenolic OH. Compounds 3, 4, 5, 7 presented medium activities depending from time and concentration. The presence of the heteroatom O or S seems to influence the activity e.g., derivatives 1, 2, and 3. Replacement of phenyl ring (4) by a thienyl group (1) decreases antioxidant behavior. […] On the contrary the presence of the furyl ring (3) enhances reduction. Additionally, the presence of a π-dimethyl-amino group 6 reduces the scavenging ability whereas its absence in (5), increases the activity. The presence of two conjugated double bonds (5) leads to lower activity compared to the simpler compound 4. Compounds 9 and 10 present the highest milogP values (5.94). Both include a phenolic hydrogen in their structure. […] On the contrary in compound 9 steric reasons are possible to lead to a decrease. Lipophilicity seems to influence the interaction of compound 10.
To a solution of DPPH in absolute ethanol an equal volume of the compounds with final concentrations of 50, 100 and 200 µM from a stock solution of 10 mM (in 1% DMSO and ethanol) was added. After 20 and 60 min the absorbance was recorded at 517 nm at room temperature (Table 2).

[6] = Experimental lipophilicity as RM values by RPTLC; format: physicochemical; design: key: RM = log[(1/Rf) − 1], from Rf values by RPTLC; details: methanol/water 70/30, 24 °C, average of at least 5 measurements
Description: Lipophilicity is a physicochemical parameter indicating the relationship of a drug to its biological activity. It affects ligand-target binding interactions, solubility, ADME (absorption, distribution, bioavailability, metabolism, and elimination) and toxicological effects. RPTLC (reverse phase thin layer chromatography) method was used for the experimental determination, as RM values. The RPTLC method is considered a secure, rapid and appropriate method for expressing the lipophilic character of a compound (Table 1).
Reversed phase TLC (RPTLC) was performed on silica gel plates impregnated with 5% (v/v) liquid paraffin in light petroleum ether. The mobile phase was a methanol/water mixture (70/30, v/v). The plates were developed in closed chromatography tanks saturated with the mobile phase at 24 °C. Spots were detected under UV light. Five individual measurements of Rf values were recorded and used for the determination of RM using the equation RM = log [(1/Rf) − 1] [59, 60, 62] (Table 2).

[7] = Inhibition of linoleic acid peroxidation induced by AAPH; format: biochemical; details: no = no action under the experimental conditions
Description: In the water soluble 2,2′-azobis(2-amidinopropane) hydrochloride (AAPH) the free radicals are produced in vitro through spontaneous thermal decomposition resembling to lipid peroxidation in cells due to the action of the peroxyl radicals. […] Compounds 11, 5, 4 and 3 presented no activity under the experimental conditions. From the experimental results it can be concluded that the 3,5-di-tert-butyl-group offers protection against lipid peroxidation. Electronic parameters expressed by the highest occupied molecular orbital (HOMO) describes better the biological activity (Equation (2)). log AAPH % = −22.042(± 8.731) HOMO − 4.853 (2.622)(2) n = 8, r = 0.930, r^2 = 0.864, q^2 = 0.567, s = 0.146, F1,8 = 5.783, α = 0.1
The oxidation reaction was started with 2,2′-Azobis(2-amidinopropane) dihydrochloride (AAPH) as a free radical initiator. Linoleic acid sodium salt was oxidized at 234 nm to a conjugated diene hydroperoxide resulting an increased absorption. Trolox was used as reference compound (93%) (Table 3).

[8] = target: T2, bovine thrombin (Bos taurus, UniProt P00735); assay: In vitro inhibition of thrombin; format: biochemical; details: substrate tosyl-Gly-Pro-Arg-pNA, no = no action under the experimental conditions, read-out: TH% 100 µM (thrombin inhibition)
T2 construct: purchased Sigma Chemical, Co. (St. Louis)
Procedure: It is well known that indandione derivatives exert their anticoagulant activity indirectly by inhibiting prothrombin synthesis in the liver. […] Derivatives 1, 2, 5, 8, 9, 10, and 12 were tested in vitro as possible thrombin inhibitors. Among the tested derivatives compound 8 presented 100% inhibition followed by compounds […] and 10.
As a substrate tosyl-Gly-Pro-Arg-pNA acetate salt was used at 1 mM final concentration. Compounds were dissolved at a final concentration of […] in a Tris-buffer (0.05 M Tris, 0.154 M NaCl, ethanol 5%, pH = 8.0). Three minutes after the addition of bovine thrombin (2.5 unit/mg), the reaction was ended by adding 1 mL acetic acid 50%. The absorption of the released p-nitro-aniline was measured at 405 nm (Table 3). Warfarin and Inogatran were used as reference compounds.

inhibition at 100 µM [4] [%] | melting point [°C] | RM (±SD) [6] | inhibition at 100 µM [8] [%] | SMILES | inhibition in vivo at 10 µmol/kg [1] [%] | Iptr% 100 µM (inhibition of trypsin induced proteolysis) [2] | ABTS+. % 100 µM (decolorization activity) [3] | RA% 50 µM 20 min [5] [%] | RA% 50 µM 60 min [5] [%] | RA% 100 µM 20 min [5] [%] | RA% 100 µM 60 min [5] [%] | RA% 200 µM 20 min [5] [%] | RA% 200 µM 60 min [5] [%] | AAPH% 100 µM (anti-lipid peroxidation) [7]
– | – | – | – | COc1ccc2c(c1)c(CC(=O)O)c(C)n2C(=O)c1ccc(Cl)cc1 [Indomethacin, reference compound] | 47 | – | – | – | – | – | – | – | – | –
26.4 | 165 to 167 | 0.158 ± 0 | – | O=C1C(=C/C=C\c2ccccc2)C(=O)c2ccccc21 [Compound 5, (Z)-2-(3-phenylallylidene)-1H-indene-1,3(2H)-dione] | – | do not present any activity and no | no | 21 | 25 | 44 | 48 | 57 | 72 | no activity and no
– | – | – | 98 | N=C(N)NCCCNC(=O)[C@@H]1CCCCN1C(=O)[C@@H](CC1CCCCC1)NCC(=O)O [Inogatran, reference compound] | – | – | – | – | – | – | – | – | – | –
– | – | – | – | CC(Cc1ccc(O)c(O)c1)C(C)Cc1ccc(O)c(O)c1 (centres unmarked) [NDGA, Nordihydroguaretic acid, reference compound] | – | – | – | 81 | 83 | 87 | 93 | 94 | 96 | –
– | – | – | – | Cc1c(C)c2c(c(C)c1O)CCC(C)(C(=O)O)O2 (centres unmarked) [Trolox, reference compound] | – | – | 91% | – | – | – | – | – | – | 93%
38.6 | 223 to 225 | −0.196 ± 0.02 | – | O=C1C(=Cc2ccc3[nH]ccc3c2)C(=O)c2ccccc21 [Compound 11, (Z)-2-((1H-indol-5-yl)methylene)-1H-indene-1,3(2H)-dione] | – | 6% | 8% | 2 | 2 | 19 | 19 | 10 | 10 | no activity and no
– | – | – | – | O=C(O)c1ccccc1O [Salycilic Acid, salicylic acid, reference compound] | – | 54% | – | – | – | – | – | – | – | –
